From PubChem BioAssay (NCI)
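Growth conditions: 96-well plates. Treatment: test compound, 48 hours, 5 concentrations. Analysis: linear interpolation between bracketing concentrations; unreached endpoints set to highest concentration. GI50 is the concentration that inhibits growth by half. TGI marks complete inhibition of growth.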 *1 amine or outer side, *2 acyl side, *3 side chain or, on linkers, in order; H or OH if unused. Where a SMILES comes first, the peptide text is derived from it. Bridges are numbered along the chain shown (N, C = ends). Roman numbers before positions name the chains, in order. [ ]: non-standard residue; d: D form. Actinocin(9to1) = Cc1c2oc3c(C)ccc(C(=O)[*:1])c3nc-2c(C(=O)[*:2])c(N)c1=O; NMeV = CN[CH](C(=O)O)C(C)C; Sar = CNCC(=O)O

Experiments:
Test in all cases: NCI anticancer screen, dose series, 48 h
[1] = system: 786-0 renal
[2] = system: A498 renal
[3] = system: ACHN renal
[4] = system: BT-549 breast
[5] = system: CAKI-1 renal
[6] = system: CCRF-CEM leukemia
[7] = system: COLO 205 colon
[8] = system: DU-145 prostate
[9] = system: EKVX NSCLC
[10] = system: HCT-116 colon
[11] = system: HCT-15 colon
[12] = system: HL-60(TB) leukemia
[13] = system: HOP-62 NSCLC
[14] = system: HOP-92 NSCLC
[15] = system: HS 578T breast
[16] = system: HT29 colon
[17] = system: IGROV1 ovarian
[18] = system: K-562 leukemia
[19] = system: KM12 colon
[20] = system: LOX IMVI melanoma
[21] = system: M14 melanoma
[22] = system: MALME-3M melanoma
[23] = system: MCF7 breast
[24] = system: MDA-MB-231 breast
[25] = system: MDA-MB-435
[26] = system: MOLT-4 leukemia
[27] = system: NCI-H226 lung
[28] = system: NCI-H23 lung
[29] = system: NCI-H460 lung
[30] = system: NCI-H522 lung
[31] = system: NCI/ADR-RES ovarian
[32] = system: OVCAR-3 ovarian
[33] = system: OVCAR-4 ovarian
[34] = system: OVCAR-5 ovarian
[35] = system: OVCAR-8 ovarian
[36] = system: PC-3 prostate
[37] = system: RPMI-8226 leukemia
[38] = system: RXF 393 renal
[39] = system: SF-268 CNS
[40] = system: SF-295 CNS
[41] = system: SF-539 CNS
[42] = system: SK-MEL-2 melanoma
[43] = system: SK-MEL-28 melanoma
[44] = system: SK-MEL-5 melanoma
[45] = system: SK-OV-3 ovarian
[46] = system: SN12C renal
[47] = system: SNB-19 CNS
[48] = system: SNB-75 CNS
[49] = system: SR leukemia
[50] = system: SW-620 colon
[51] = system: T-47D breast
[52] = system: TK-10 renal
[53] = system: U251 CNS
[54] = system: UACC-257 melanoma
[55] = system: UACC-62 melanoma
[56] = system: UO-31 renal

Structure (SMILES): Cc1c2oc3c(C)ccc(C(=O)OC(C)C4NC(=O)C(C(C)C)N(C)C(=O)CN(C)C(=O)C5CCCN5C(=O)C(C(C)C)NC4=O)c3nc-2c(C(=O)OC(C)C2NC(=O)C(C(C)C)N(C)C(=O)CN(C)C(=O)C3CCCN3C(=O)C(C(C)C)NC2=O)c(N)c1=O (stereo not drawn) (I: cyclo([Sar][NMeV]TVP) / II: cyclo([Sar][NMeV]TVP); linker I:3-II:3 via Actinocin(9to1); configuration not given here)
- GI50 [1]: < 10 nM
- TGI [1]: > 100000 nM
- GI50 [2]: < 10.7 nM
- TGI [2]: 29.4 nM
- GI50 [3]: < 10 nM
- TGI [3]: 4390 nM
- GI50 [4]: < 10 nM
- TGI [4]: 36.3 nM
- GI50 [5]: 59.6 nM
- GI50 [6]: < 11.1 nM
- TGI [6]: > 66300 nM
- GI50 [7]: < 10 nM
- TGI [7]: 16.3 nM
- GI50 [8]: < 10.7 nM
- TGI [8]: > 30700 nM
- GI50 [9]: 22 nM
- GI50 [10]: < 10 nM
- TGI [10]: > 100000 nM
- GI50 [11]: 39.6 nM
- TGI [11]: > 100000 nM
- GI50 [12]: < 16.5 nM
- TGI [12]: 212 nM
- GI50 [13]: < 10 nM
- TGI [13]: 88.3 nM
- GI50 [14]: < 10 nM
- TGI [14]: 98.9 nM
- GI50 [15]: 19.2 nM
- GI50 [16]: < 10 nM
- GI50 [17]: < 10 nM
- TGI [17]: 5900 nM
- GI50 [18]: < 10 nM
- TGI [18]: > 100000 nM
- GI50 [19]: < 10 nM
- TGI [19]: 793 nM
- GI50 [20]: < 10 nM
- TGI [20]: > 35000 nM
- GI50 [21]: 11.7 nM
- TGI [21]: 51.7 nM
- GI50 [22]: < 10 nM
- TGI [22]: 28.2 nM
- GI50 [23]: < 10 nM
- TGI [23]: > 100000 nM
- GI50 [24]: 15.2 nM
- GI50 [25]: < 10 nM
- TGI [25]: 24.7 nM
- GI50 [26]: < 10 nM
- GI50 [27]: < 10 nM
- TGI [27]: 33.5 nM
- GI50 [28]: < 10 nM
- TGI [28]: 80.2 nM
- GI50 [29]: < 10 nM
- TGI [29]: > 32700 nM
- GI50 [30]: < 10 nM
- TGI [30]: < 11.6 nM
- GI50 [31]: 541 nM
- TGI [31]: > 100000 nM
- GI50 [32]: < 10 nM
- TGI [32]: 32 nM
- GI50 [33]: 14 nM
- TGI [33]: 2030 nM
- GI50 [34]: 11.4 nM
- TGI [34]: 21600 nM
- GI50 [35]: < 10 nM
- GI50 [36]: < 10 nM
- TGI [36]: 19700 nM
- GI50 [37]: < 10 nM
- TGI [37]: 58.2 nM
- GI50 [38]: < 10 nM
- TGI [38]: 18.5 nM
- GI50 [39]: < 10 nM
- TGI [39]: 913 nM
- GI50 [40]: < 10 nM
- TGI [40]: 1530 nM
- GI50 [41]: < 10 nM
- TGI [41]: 65.6 nM
- GI50 [42]: < 10 nM
- TGI [42]: < 15.2 nM
- GI50 [43]: < 10 nM
- TGI [43]: 30.7 nM
- GI50 [44]: < 10 nM
- TGI [44]: 16.9 nM
- GI50 [45]: 19.2 nM
- TGI [45]: > 100000 nM
- GI50 [46]: < 10 nM
- TGI [46]: > 100000 nM
- GI50 [47]: < 10 nM
- TGI [47]: > 55500 nM
- GI50 [48]: < 10.9 nM
- TGI [48]: 39 nM
- GI50 [49]: < 10 nM
- TGI [49]: > 100000 nM
- GI50 [50]: < 10 nM
- TGI [50]: 17700 nM
- GI50 [51]: < 10 nM
- TGI [51]: > 100000 nM
- GI50 [52]: < 12.7 nM
- TGI [52]: 894 nM
- GI50 [53]: < 10 nM
- GI50 [54]: < 10 nM
- GI50 [55]: < 10 nM
- TGI [55]: 12.5 nM
- GI50 [56]: 30.2 nM
- TGI [56]: 206 nM
